For 14 compounds, MIC results are on record in patent US4546176A, “7-Carboxymethoxyphenylacetamido-3-cephem derivatives and antibacterial preparations containing the same” (Eisai Co., Ltd., priority 1982, dated 1985).

What all share (format): cell-based
For one assay, the system named is Staph. aureus 209-P. Briefly: Antibacterial activities (MIC), Staph. aureus 209-P. The conditions noted are these: Staphylococcus aureus. An excerpt:
(§1) (1) Antibacterial activities (MIC):

For a further assay, the system named is Escher. coli NIHJ. Nature of the assay: Antibacterial activities (MIC), Escher. coli NIHJ. The note with it: Escherichia coli.
From the text: as §1

The subject of a further assay is Kleb. pneumoniae EK-6. Briefly: Antibacterial activities (MIC), Kleb. pneumoniae EK-6. The note with it: Klebsiella pneumoniae, EK6.
From the text: as §1

The test system of another assay is Proteus morganii EP-14. Briefly: Antibacterial activities (MIC), Proteus morganii EP-14. The note with it: Morganella morganii, EP14.
From the text: as §1

In a further assay the test system is Pseud. aeruginosa EP-01. Briefly: Antibacterial activities (MIC), Pseud. aeruginosa EP-01. The note with it: Pseudomonas aeruginosa, EP01.
From the text: as §1

The subject of the next assay is Ser. marcescens ES-75. Nature of the assay: Antibacterial activities (MIC), Ser. marcescens ES-75. The note with it: Serratia marcescens, ES75.
From the text: as §1

Molecules are shown by their SMILES. Values after ≈ are worked out from the molar mass of the structure shown.

Consider `CCn1cc(C(=O)N[C@@H](C(=O)N[C@@H]2C(=O)N3C(C(=O)O)=C(COC(C)=O)CS[C@H]23)c2ccc(OCC(=O)O)cc2)c(=O)c2cc(O)c(O)cc21` [Example 35, Disodium 7β-[D-2-(4-carboxymethoxyphenyl)-2-(6,7-dihydroxy-1-ethyl-1,4-dihydro-4-oxoquinoline-3-carboxamido)acetamido]-3-acetoxymethyl-3-cephem-4-carboxylate], for which the MIC (in general, the smallest concentration in the dilution series that meets the test's criterion for growth inhibition) in the assay with Staph. aureus 209-P was 50 µg/mL; against Escher. coli NIHJ it was 0.8 µg/mL; with Kleb. pneumoniae EK-6 it was at most 0.05 µg/mL; against Proteus morganii EP-14, 12.5 µg/mL; with Pseud. aeruginosa EP-01, 0.2 µg/mL; with Ser. marcescens ES-75, 1.56 µg/mL.
Turning to `CCOC(=O)Oc1cc2oc(C)c(C(=O)N[C@@H](C(=O)N[C@@H]3C(=O)N4C(C(=O)O)=C(COC(C)=O)CS[C@H]34)c3ccc(OCC(=O)O)cc3)c(=O)c2cc1OC(=O)OCC` [Example 36], the minimum inhibitory concentration (MIC) against Staph. aureus 209-P was 25 µg/mL (≈ 29.7 µM); against Escher. coli NIHJ, 0.8 µg/mL (≈ 0.95 µM); against Kleb. pneumoniae EK-6, at most 0.05 µg/mL; in the assay with Proteus morganii EP-14, 12.5 µg/mL (≈ 14.8 µM); against Pseud. aeruginosa EP-01, 0.1 µg/mL (≈ 0.119 µM); against Ser. marcescens ES-75, 0.8 µg/mL (≈ 0.95 µM).
Take `CC(=O)OCC1=C(C(=O)O)N2C(=O)[C@@H](NC(=O)[C@H](NC(=O)c3coc4c(OC(C)=O)c(OC(C)=O)ccc4c3=O)c3ccc(OCC(=O)O)cc3)[C@H]2SC1` [Example 17, 7β-[D-2-(4-Carboxymethoxyphenyl)-2-(7,8-diacetoxy-4-oxo-4H-1-benzopyran-3-carboxamido)acetamido]-3-acetoxymethyl-3-cephem-4-carboxylic acid]: the minimum inhibitory concentration (MIC) against Staph. aureus 209-P is 50 µg/mL (≈ 65.1 µM); in the assay on Escher. coli NIHJ it was 0.8 µg/mL (≈ 1.04 µM); against Kleb. pneumoniae EK-6, at most 0.05 µg/mL; against Proteus morganii EP-14, 12.5 µg/mL (≈ 16.3 µM); against Pseud. aeruginosa EP-01, 0.8 µg/mL (≈ 1.04 µM); against Ser. marcescens ES-75 it was 1.56 µg/mL (≈ 2.03 µM).
As for `CC(=O)OCC1=C(C(=O)O)N2C(=O)[C@@H](NC(=O)[C@H](NC(=O)c3coc4cc(O)c(O)cc4c3=O)c3ccc(OCC(=O)O)cc3)[C@H]2SC1` [Example 1, 7β-[D-2-(4-Carboxymethoxyphenyl)-2-(6,7-dihydroxy-4-oxo-4H-1-benzopyran-3-carboxamido)-acetamido]-3-acetoxymethyl-3-cephem-4-carboxylic acid], the minimal inhibitory concentration (MIC) is 25 µg/mL (≈ 36.6 µM) with Staph. aureus 209-P; 0.2 µg/mL (≈ 0.293 µM) in the assay on Escher. coli NIHJ; at most 0.05 µg/mL against Kleb. pneumoniae EK-6; 6.25 µg/mL (≈ 9.14 µM) against Proteus morganii EP-14; at most 0.05 µg/mL against Pseud. aeruginosa EP-01; 0.2 µg/mL (≈ 0.293 µM) against Ser. marcescens ES-75.
With `CCn1cc(C(=O)N[C@@H](C(=O)N[C@@H]2C(=O)N3C(C(=O)O)=C(CSc4nnnn4C)CS[C@H]23)c2ccc(OCC(=O)O)cc2)c(=O)c2cc(O)c(O)cc21` [Example 12, 7β-[D-2-(4-Carboxymethoxyphenyl)-2-(6,7-dihydroxy-1,4-dihydro-1-ethyl-4-oxoquinolin-3-carboxamido)-acetamido]-3-(1-methyl-5-tetrazolyl)thiomethyl-3-cephem-4-carboxylic acid], the MIC was 50 µg/mL (≈ 65.2 µM) against Staph. aureus 209-P; 0.4 µg/mL (≈ 0.522 µM) with Escher. coli NIHJ; at most 0.05 µg/mL against Kleb. pneumoniae EK-6; 1.56 µg/mL (≈ 2.03 µM) in the assay on Proteus morganii EP-14; 0.1 µg/mL (≈ 0.13 µM) against Pseud. aeruginosa EP-01; at most 0.05 µg/mL in the assay with Ser. marcescens ES-75.
For `Cn1nnnc1SCC1=C(C(=O)O)N2C(=O)[C@@H](NC(=O)[C@H](NC(=O)c3coc4c(O)c(O)ccc4c3=O)c3ccc(OCC(=O)O)cc3)[C@H]2SC1` [Example 9, 7β-[D-2-(4-Carboxymethoxyphenyl)-2-(7,8-dihydroxy-4-oxo-4H-1-benzopyran-3-carboxamido)acetamido]-3-(1-methyl-5-tetrazolyl)thiomethyl-3-cephem-4-carboxylic acid], the minimum inhibitory concentration (MIC) was 25 µg/mL (≈ 33.8 µM) against Staph. aureus 209-P; 0.4 µg/mL (≈ 0.541 µM) in the assay with Escher. coli NIHJ; at most 0.05 µg/mL with Kleb. pneumoniae EK-6; 1.56 µg/mL (≈ 2.11 µM) in the assay with Proteus morganii EP-14; at most 0.05 µg/mL against Pseud. aeruginosa EP-01; 0.2 µg/mL (≈ 0.27 µM) in the assay with Ser. marcescens ES-75.
Turning to `CC(=O)OCC1=C(C(=O)O)N2C(=O)[C@@H](NC(=O)[C@H](NC(=O)c3c(C)oc4cc(O)c(O)cc4c3=O)c3ccc(OCC(=O)O)cc3)[C@H]2SC1` [Example 29, Disodium 7β-[D-2-(4-carboxymethoxyphenyl)-2-(6,7-dihydroxy-2-methyl-4-oxo-4H-1-benzopyran-3-carboxamido)acetamido]-3-acetoxymethyl-3-cephem-4-carboxylate], the minimum inhibitory concentration (MIC) is 50 µg/mL in the assay with Staph. aureus 209-P; 0.4 µg/mL against Escher. coli NIHJ; at most 0.05 µg/mL in the assay on Kleb. pneumoniae EK-6; 12.5 µg/mL against Proteus morganii EP-14; 0.2 µg/mL in the assay on Pseud. aeruginosa EP-01; 0.4 µg/mL in the assay with Ser. marcescens ES-75.
With `CN(C)CCn1nnnc1SCC1=C(C(=O)O)N2C(=O)[C@@H](NC(=O)[C@H](NC(=O)c3coc4cc(O)c(O)cc4c3=O)c3ccc(OCC(=O)O)cc3)[C@H]2SC1` [Example 14, Disodium 7β-[D-2-(4-carboxymethoxyphenyl)-2-(6,7-dihydroxy-4-oxo-4H-1-benzopyran-3-carboxamido)-acetamido]-3-[1-(2-N,N-dimethylaminoethyl)-5-tetrazolyl]-thiomethyl-3-cephem-4-carboxylate], the minimum inhibitory concentration (MIC) is 25 µg/mL against Staph. aureus 209-P; 0.4 µg/mL in the assay on Escher. coli NIHJ; at most 0.05 µg/mL in the assay on Kleb. pneumoniae EK-6; 3.13 µg/mL in the assay with Proteus morganii EP-14; 0.1 µg/mL in the assay with Pseud. aeruginosa EP-01; 0.2 µg/mL against Ser. marcescens ES-75.
As for `CC(=O)Oc1cc2oc(C)c(C(=O)N[C@@H](C(=O)N[C@@H]3C(=O)N4C(C(=O)[O-])=C(C[n+]5ccc(C(N)=O)cc5)CS[C@H]34)c3ccc(OCC(=O)O)cc3)c(=O)c2cc1OC(C)=O` [Example 56, 7β-[D-2-(4-Carboxymethoxyphenyl)-2-(6,7-diacetoxy-2-methyl-4-oxo-4H-1-benzopyran-3-carboxamido)acetamido]-3-(4-carbamoylpyridinium)methyl-3-cephem-4-carboxylate], the minimum inhibitory concentration (MIC) with Staph. aureus 209-P is 25 µg/mL (≈ 29.6 µM); against Escher. coli NIHJ, 0.8 µg/mL (≈ 0.948 µM); with Kleb. pneumoniae EK-6 it was at most 0.05 µg/mL; with Proteus morganii EP-14 it was 6.25 µg/mL (≈ 7.41 µM); against Pseud. aeruginosa EP-01, 0.2 µg/mL (≈ 0.237 µM); in the assay with Ser. marcescens ES-75 it was 0.8 µg/mL (≈ 0.948 µM).
As for `CC(=O)Oc1ccc2c(=O)c(C(=O)N[C@@H](C(=O)N[C@@H]3C(=O)N4C(C(=O)O)=C(CSc5nnnn5CC(=O)O)CS[C@H]34)c3ccc(OCC(=O)O)cc3)coc2c1OC(C)=O` [Example 16, 7β-[D-2-(4-carboxymethoxyphenyl)-2-(7,8-diacetoxy-4-oxo-4H-1-benzopyran-3-carboxamido)acetamido]-3-(1-carboxymethyl-5-tetrazolyl)thiomethyl-3-cephem-4-carboxylic acid], the MIC against Staph. aureus 209-P came out at 100 µg/mL (≈ 115 µM); against Escher. coli NIHJ, 0.8 µg/mL (≈ 0.922 µM); in the assay with Kleb. pneumoniae EK-6, 0.2 µg/mL (≈ 0.23 µM); against Proteus morganii EP-14, 6.25 µg/mL (≈ 7.2 µM); in the assay with Pseud. aeruginosa EP-01, 0.8 µg/mL (≈ 0.922 µM); in the assay on Ser. marcescens ES-75, 0.8 µg/mL (≈ 0.922 µM).
In the case of `CC(=O)Oc1ccc2c(=O)c(C(=O)N[C@@H](C(=O)N[C@@H]3C(=O)N4C(C(=O)O)=C(CSc5nnnn5CC(=O)O)CS[C@H]34)c3ccc(OCC(=O)O)cc3)c(C)oc2c1OC(C)=O` [Example 23, 7β-[D-2-(4-Carboxymethoxyphenyl)-2-(7,8-diacetoxy-2-methyl-4-oxo-4H-1-benzopyran-3-carboxamido)-acetamido]-3-(1-carboxymethyl-5-tetrazolyl)thiomethyl-3-cephem-4-carboxylic acid], the MIC in the assay with Staph. aureus 209-P is 100 µg/mL (≈ 113 µM); against Escher. coli NIHJ, 0.4 µg/mL (≈ 0.454 µM); with Kleb. pneumoniae EK-6, at most 0.05 µg/mL; against Proteus morganii EP-14 it was 6.25 µg/mL (≈ 7.09 µM); in the assay with Pseud. aeruginosa EP-01, 0.8 µg/mL (≈ 0.907 µM); in the assay on Ser. marcescens ES-75, 0.8 µg/mL (≈ 0.907 µM).
Turning to `Cc1nnc(SCC2=C(C(=O)O)N3C(=O)[C@@H](NC(=O)[C@H](NC(=O)c4coc5cc(O)c(O)cc5c4=O)c4ccc(OCC(=O)O)cc4)[C@H]3SC2)s1` [Example 6, Disodium 7β-[D-2-(4-carboxymethoxyphenyl)-2-(6,7-dihydroxy-4-oxo-4H-1-benzopyran-3-carboxamido)-acetamido]-3-[5-methyl-2-(1,3,4-thiadiazolyl)]-thiomethyl-3-cephem-4-carboxylate], the MIC was 3.13 µg/mL with Staph. aureus 209-P; 0.8 µg/mL in the assay with Escher. coli NIHJ; at most 0.05 µg/mL against Kleb. pneumoniae EK-6; 1.56 µg/mL against Proteus morganii EP-14; at most 0.05 µg/mL in the assay on Pseud. aeruginosa EP-01; 0.2 µg/mL in the assay with Ser. marcescens ES-75.
Take `Cn1nnnc1SCC1=C(C(=O)O)N2C(=O)[C@@H](NC(=O)[C@H](NC(=O)c3cc4ccc(O)c(O)c4oc3=O)c3ccc(OCC(=O)O)cc3)[C@H]2SC1` [Example 10, 7β-[D-2-(4-Carboxymethoxyphenyl)-2-(7,8-dihydroxyphenyl)-2-(7,8-dihydroxy-2-oxo-2H-1-benzopyran-3-carboxamido)acetamido]-3-(1-methyl-5-tetrazolyl)-thiomethyl-3-cephem-4-carboxylic acid]: the MIC was 12.5 µg/mL (≈ 16.9 µM) against Staph. aureus 209-P; 0.4 µg/mL (≈ 0.541 µM) in the assay with Escher. coli NIHJ; at most 0.05 µg/mL against Kleb. pneumoniae EK-6; 3.13 µg/mL (≈ 4.23 µM) against Proteus morganii EP-14; at most 0.05 µg/mL against Pseud. aeruginosa EP-01; 0.1 µg/mL (≈ 0.135 µM) in the assay on Ser. marcescens ES-75.
As to `CC(=O)Oc1cc2oc(C)c(C(=O)N[C@@H](C(=O)N[C@@H]3C(=O)N4C(C(=O)O)=C(CSc5nnnn5CC(=O)O)CS[C@H]34)c3ccc(OCC(=O)O)cc3)c(=O)c2cc1OC(C)=O` [Example 22, 7β-[D-2-(4-Carboxymethoxyphenyl)-2-(6,7-diacetoxy-2-methyl-4-oxo-4H-1-benzopyran-3-carboxamido)-acetamido]-3-(1-carboxymethyl-5-tetrazolyl)thiomethyl-3-cephem-4-carboxylic acid], the MIC was 100 µg/mL (≈ 113 µM) with Staph. aureus 209-P; 0.2 µg/mL (≈ 0.227 µM) in the assay on Escher. coli NIHJ; at most 0.05 µg/mL against Kleb. pneumoniae EK-6; 3.13 µg/mL (≈ 3.55 µM) in the assay on Proteus morganii EP-14; 0.2 µg/mL (≈ 0.227 µM) against Pseud. aeruginosa EP-01; 0.1 µg/mL (≈ 0.113 µM) in the assay with Ser. marcescens ES-75.
